{"source": "patent US20250215087A1", "about": "“COMBINATION THERAPY OF KRAS INHIBITOR AND TREG DEPLETING AGENT” (Bristol-Myers Squibb Company, priority 2023, published 2025)", "key": {"[1]": {"system": "Lewis Lung (3LL) carcinoma model", "experiment": "Imaging mass cytometry of Lewis Lung (3LL) carcinoma lungs after 7 days MRTX1257 or Vehicle; spatial community analysis", "type": "in vivo, C57BL/6 mice", "method": "Two datasets of IMC data generated from an in vivo experiment in which the Lewis Lung (3LL) carcinoma model was treated with the KRAS-G12C inhibitor MRTX1257 for 7 days prior to harvesting of the lungs were published previously in van Maldegem et al. (2021), Nat. Commun. 12:5906 (dataset 1) and Mugarza et al. (2022), Sci. Adv. 8: eabm8780 (dataset 2).\nFollowing 3 weeks, mice were treated with either 50 mg/kg MRTX1257 or Vehicle for 7 consecutive days. Mice were sacrificed on day 8 and lungs were harvested and frozen. Tumors of 3 mice from each treatment group for dataset 1 and 4 mice from each treatment group for dataset 2 were processed for imaging mass cytometry. Tissue slices were stained with a cocktail of antibodies conjugated to heavy metal isotopes and images were obtained using a Hyperion Imaging Mass Cytometer (Standard BioTools). Different antibody panels were used for the generation of datasets 1 and 2 (FIGS. 1A and 1B). In total, 6 images were acquired from both Vehicle and MRTX1257 groups for dataset 1, and the Vehicle group for dataset 2, and 5 images were acquired from the MRTX1257 group for dataset 2.\nFor further details on the in vivo study and IMC, including tissue processing, antibody staining, imaging acquisition and cell typing, reference is generally made to the Materials and Methods and Supplementary Materials provided by van Maldegem et al. (2021) and Mugarza et al. (2022), which are herewith incorporated by reference.\nAs described in van Maldegem et al. (2021), cellular neighbors were identified during segmentation using the CellProfiler module ‘Measure Object Neighbours’, following steps to identify individual cells. Neighbors were identified if a cell's boundary was within 15 μm (pixels) of the cell boundary of interest. Neighbor information was obtained for every cell object in each tissue.\nEach ‘neighborhood’ was identified as a single cell and its local neighbors; defined by 15 μm object relationship output data from segmentation.\nExpression values for each marker were normalized to the mean intensity of Xenon134. Following this, the data for each image across both treatment groups was concatenated, creating a size of 282,837 cells for dataset 1 and 626,070 cells for dataset 2. Each channel was then scaled to the 99th percentile. […] These clusters formed the basis to identify cell types present in the tissue, including tumor, lymphocytes, myeloid cells, fibroblasts, and endothelium. More details are available in van Maldegem et al., 2021 for dataset 1 and Mugarza et al., 2022 for dataset 2.\nAs described in van Maldegem et al., 2021, the neighbourhood method developed by Bodenmiller (https://github.com/BodenmillerGroup/neighbourhood; Schapiro et al., 2017, histoCAT: analysis of cell phenotypes and interactions in multiplex image cytometry data. Nat Methods 14, 873-876) was used to identify the enrichment of cell types within the 15-pixel neighborhood of each cell compared to random permutations of events, with a modification of only calculating enrichment in the CD8^+ T cell neighborhood, separated by community and using 1000 rounds of permutation. This was carried out for the community names T cell/normal adjacent community (T/NA), T cell/Type 1 macrophage community (T/M1), T cell/Dendritic cell community (T/DC), T cell/Type 2 macrophage community 1 (T/M2_1) and T cell/Type 2 macrophage community 2 (T/M2_2) communities for the MRTX1257 treatment setting.\nNeighborhood enrichment analysis was also used for exploring cell pair relationships in the presence or absence of Tregs within the T/DC and T/M2_2 communities following MRTX treatment. Enrichment scores were only deemed statistically significant if the p-value when comparing real neighbors to randomized neighbors was ≤0.01."}, "[2]": {"system": "Lewis Lung (3LL) carcinoma model", "settings": "van Maldegem et al. 2021, cited from earlier work"}, "[3]": {"system": "orthotopic Lewis lung (3LL) NSCLC tumors", "settings": "seven consecutive days of treatment; van Maldegem et al. 2021; cited from earlier work"}, "KRAS-G12C mutant NSCLC": {"system": "KRAS-G12C mutant NSCLC", "settings": "clinical trials; cited from earlier work"}, "advanced melanoma": {"system": "advanced melanoma", "settings": "Hodi et al. 2010; cited from earlier work"}, "CCR4": {"biological_target": "T1, CCR4 (Homo sapiens, UniProt P51679)", "T1 construct": "host or cells: Tregs, conventional CD4+ and CD8+ T cells (in vivo, cited study)", "T1 sequence (P51679 1-360)": "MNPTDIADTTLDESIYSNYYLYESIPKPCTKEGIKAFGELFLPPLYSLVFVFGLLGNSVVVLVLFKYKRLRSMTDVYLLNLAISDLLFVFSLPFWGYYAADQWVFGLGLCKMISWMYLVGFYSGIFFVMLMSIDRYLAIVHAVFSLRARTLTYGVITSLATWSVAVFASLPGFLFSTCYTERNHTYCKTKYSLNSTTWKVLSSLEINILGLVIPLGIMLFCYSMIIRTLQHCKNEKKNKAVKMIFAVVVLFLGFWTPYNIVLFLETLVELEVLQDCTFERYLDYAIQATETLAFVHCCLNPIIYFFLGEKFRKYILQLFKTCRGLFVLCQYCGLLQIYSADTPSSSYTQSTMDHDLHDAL", "settings": "Kurose et al. 2015; cited from earlier work"}}, "data": [{"compound": "C=CC(=O)N1CCN(c2nc(OC[C@@H]3CCCN3C)nc3c2CCN(c2cccc4cccc(C)c24)C3)C[C@@H]1CC#N", "note": "[MRTX1257]", "values": [{"measurement": "frequency of c-casp3+ tumor cells in the CD8+ T cell close neighborhood", "setting": "[1]; T/DC community, 'No Tregs' neighborhoods, FIG. 25", "value": "increased"}, {"measurement": "Ki67 expression on CD4+ and CD8+ T cells", "setting": "[1]; T/DC community, dataset 2, FIG. 19A", "value": "significant increase"}, {"measurement": "occurrences of a c-casp3+ tumor cell in the 15-pixel neighborhood of a CD8+ T cell", "setting": "[1]; T/DC community, dataset 2, FIG. 19B", "value": "increased"}, {"measurement": "images with CD4+ T cells and dendritic cells significantly enriched in the neighborhood of a CD8+ T cell", "setting": "[1]; T/DC community, vs random permutation, FIG. 21A", "value": "at least five out of the six images"}, {"measurement": "images with Treg cells significantly enriched in the neighborhood of CD8+ T cells", "setting": "[1]; T/DC community, FIG. 21A", "value": "3 out of the 6"}, {"measurement": "mean expression of PD-1 on CD8+ T cells", "setting": "[1]; T/DC, T/M2_1 and T/M2_2 communities, most pronounced in T/DC, FIGS. 16A-16B", "value": "an increase occurred"}, {"measurement": "PD-L1 expression on dendritic cells (accompanied by high CD86)", "setting": "[1]; T/DC, T/M2_1 and T/M2_2 communities, FIGS. 13A-13C", "value": "increased PD-L1 expression"}, {"measurement": "interactions between tumor cells and neutrophils (communities 5, 13, 14, 15)", "setting": "[1]; dataset 1, MRTX1257 vs Vehicle, FIG. 5", "value": "lost or dispersed"}, {"measurement": "mean expression of CXCL9 on dendritic cells and macrophages", "setting": "[1]; dataset 2, highest in T/DC community, FIG. 14", "value": "increased"}, {"measurement": "mean expression of PD-1 on regulatory T cells", "setting": "[1]; mainly in the T/DC community, FIG. 16D", "value": "higher PD-1 expression"}, {"measurement": "count of regulatory T cells", "setting": "[1]; most notably in T/DC and T/M2_2 communities, FIG. 22", "value": "increased in size"}, {"measurement": "spatial distribution and neighborhood environment of CD8+ T cells", "setting": "[1]; top 5 CD8+ T cell rich communities, MRTX1257 vs Vehicle, FIG. 11", "value": "shift in spatial distribution and neighborhood environment"}, {"measurement": "percentage of PD-1+ CD8+ T cells that are positive for LAG-3", "setting": "[1]; tumor-associated communities following MRTX treatment, FIG. 17B", "value": "~30", "unit": "%"}, {"measurement": "immune phenotype of the tumor microenvironment", "setting": "[2]; 50 mg/kg MRTX1257 for 7 days vs Vehicle", "value": "remodelled into a more inflammatory immune infiltrated TME"}, {"measurement": "type 2 macrophage number and activation markers", "setting": "[2]; previously described", "value": "increased in cell number and upregulated activation markers such as PD-L1 and MHC-II"}, {"measurement": "tumor regression and growth", "setting": "[3]", "value": "tumors did not regress although tumor growth was inhibited"}]}, {"compound": "C=CC(=O)N1CCN(c2nc(=O)n(-c3c(C)ccnc3C(C)C)c3nc(-c4c(O)cccc4F)c(F)cc23)[C@@H](C)C1", "note": "[sotorasib]", "values": [{"measurement": "patients achieving temporary disease control", "setting": "KRAS-G12C mutant NSCLC", "value": 80, "unit": "%"}]}, {"compound": "Ipilimumab: human anti-CTLA-4 antibody with IgG1 constant region, SEQ ID NO: 150 and 151", "values": [{"measurement": "overall survival", "setting": "advanced melanoma", "value": "improvement in overall survival"}]}, {"compound": "mogamulizumab: humanized, afucosylated monoclonal antibody targeting CC chemokine receptor 4 (CCR4)", "values": [{"measurement": "CD8+ T cell numbers", "setting": "CCR4", "value": "modest reductions"}, {"measurement": "Treg depletion", "setting": "CCR4", "value": "achieved"}, {"measurement": "conventional CD4+ T cells", "setting": "CCR4", "value": "significant depletion"}]}]}
